# Reference: US11925629B2, “Heterocyclic inhibitors of ERK1 and ERK2 and their use in the treatment of cancer” (Asana Biosciences, LLC, priority 2015, dated 2024)
# Structures can show the parent of a compound that is named as a salt.
# Columns and labels:
# Type in all cases: cell-based, human
# [1] = system: HCT116 (colorectal carcinoma, K Ras G13D) cells; experiment: Cell proliferation (Alamar Blue) assay, HCT116; conditions: Homo sapiens, HCT-116, HCT116 cells
# Experimental: (§1) Cell Proliferation (Alamar Blue) Assay
# (§2) HT-29 (colorectal carcinoma, B-RafV600E), HCT116 (colorectal carcinoma, K Ras G13D), A375 (melanoma, B-RafV600E) and SK-Mel2 (melanoma, NRAS Q61R) cells (obtained from ATCC, USA) were seeded (5000 cells/well) in 96-well tissue culture plate and incubated at 37° C./5% CO2 for 16-24 hours. The cells were then treated with compounds, at concentrations typically from 0.0005 to 10 uM prepared in 3-fold serial dilutions. The plates were then incubated for 72 h at 37° C./5% CO2 in a moist environment. Then Alamar Blue™ reagent (final concentration 1×) was added to each well and incubated for 1-3 h at 37° C./5% CO2. The plates were read on fluorescence reader at 540 nm excitation and 590 nm emission wavelengths. The IC50 values were subsequently determined using a sigmoidal dose-response curve (variable slope) using GraphPad Prism® 5 software.
# [2] = system: phosphorylation of RSK1(S380) (the downstream target of ERK1/2); experiment: Phospho-RSK1(S380) ELISA assay in HT-29 cells; conditions: Homo sapiens, HT-29, HT29 cells, phospho-RSK1(S380); read-out: Mechanistic Cell Assay RSK1 Phos HT29 IC50
# Experimental: Phospho-RSK1(S380) ELISA Assay
# HT-29 cells (colorectal carcinoma, B-RafV600E); obtained from ATCC, USA) were seeded (60,000 cells/well) in a 96-well plate and incubated at 37° C./5% CO2 overnight and then treated with desired compound dilutions for 2 h. Medium was removed and cells were rinsed once with ice-cold 1×PBS, then 0.070 mL ice-cold 1× cell lysis buffer containing 1 mM PMSF was added to each well and the plate was incubated on a shaker for 2 h and 30 min at 4° C. The plate was then centrifuged for 20 min (×4000 rpm) at 4° C. and the supernatant was transferred to a new plate. Cell lysates were diluted with sample diluent at a ratio of 1:1. The ELISA was then carried out following the manufacturer's protocol (PathScan® phospho-RSK1(Ser380) Sandwich ELISA Kit, Cell Signaling Technologies). The plate was read at 450 nm within 30 min after adding STOP solution. The IC50 values were subsequently determined using a sigmoidal dose-response curve (variable slope) in GraphPad Prism® 5 software.
# [3] = system: HT-29 (colorectal carcinoma, B-RafV600E) cells; experiment: Cell proliferation (Alamar Blue) assay, HT-29; conditions: Homo sapiens, HT-29, HT29 cells
# Experimental: as §1, §2
Structure (SMILES),IC50 [1],IC50 [2],IC50 [3]
"Cc1cnc(NC2CCOCC2)nc1-n1cnc(C(=O)NC(c2cccc(Cl)c2)C(C)O)c1 (single isomer, unassigned; isomer #2) [Example 252, N-(1-(3-chlorophenyl)-2-hydroxypropyl)-1-(5-methyl-2-((tetrahydro-2H-pyran-4-yl)amino)pyrimidin-4-yl)-1H-imidazole-4-carboxamide (isomer #2)]",250 to 500 nM,100 to 250 nM,–
"Cc1cnc(Nc2ccc(Oc3ccccc3)cc2)nc1-n1cnc(C(=O)N[C@H](CO)c2cccc(Cl)c2)c1 (stereo in doubt) [Example 250, N-(1-(3-chlorophenyl)-2-hydroxyethyl)-1-(5-methyl-2-((4-phenoxyphenyl)amino)pyrimidin-4-yl)-1H-imidazole-4-carboxamide]",> 2500 nM,500 to 2500 nM,–
"Cc1cnc(Nc2ccc(F)cc2Cl)nc1-n1ccc(C(=O)N[C@H](CO)c2cccc(Cl)c2)c1 [Cmpd 29, (S)-1-(2-((2-chloro-4-fluorophenyl)-amino)-5-methyl-pyrimidin-4-yl)-N-(1-(3-chlorophenyl)-2-hydroxy-ethyl)-1H-pyrrole-3-carboxamide]",–,250 to 500 nM,–
"Cc1cnc(Nc2ccc(F)cc2)cc1-n1cnc(C(=O)NC(CN)c2ccccc2)c1 (stereo not drawn) [Compound #191, N-(2-amino-1-phenylethyl)-1-(2-((4-fluorophenyl)amino)-5-methylpyridin-4-yl)-1H-imidazole-4-carboxamide]",–,100 to 250 nM,–
"O=C(Nc1cnn(-c2ccnc(Nc3ccccc3)c2)c1)N[C@H](CO)c1cccc(Cl)c1 [Example 34, (S)-1-(1-(3-chlorophenyl)-2-hydroxy-ethyl)-3-(1-(2-(phenyl-amino)pyridin-4-yl)-1H-pyrazol-4-yl)urea]",> 2500 nM,> 2500 nM,–
"O=C(NC(CO)c1cccc(Cl)c1)c1ccn(-c2ccnc(Nc3ccc(F)cc3Cl)n2)c1 (stereo not drawn) [Example 111, 1-(2-((2-chloro-4-fluorophenyl)amino)pyrimidin-4-yl)-N-(1-(3-chlorophenyl)-2-hydroxy-ethyl)-1H-pyrrole-3-carboxamide]",> 2500 nM,–,> 2500 nM
"NCC(Cc1ccccc1)NC(=O)c1ccn(-c2ccnc(Nc3ccc(F)cc3)c2)c1 (stereo not drawn) [Example 119, N-(1-amino-3-phenyl-propan-2-yl)-1-(2-((4-fluoro-phenyl)amino)pyridin-4-yl)-1H-pyrrole-3-carboxamide]",> 2500 nM,–,> 2500 nM
"Cc1cnc(NC2CCOCC2)nc1-n1ccc(C(=O)NC(CO)c2ccccc2)c1 (stereo not drawn) [Example 120, N-(2-hydroxy-1-phenylethyl)-1-(5-methyl-2-((tetrahydro-2H-pyran-4-yl)amino)pyrimidin-4-yl)-1H-pyrrole-3-carboxamide]",> 2500 nM,–,> 2500 nM
"CC(=O)NCC(NC(=O)c1ccn(-c2cc(Nc3ccc(F)cc3)ncc2C)c1)c1ccccc1 (stereo not drawn) [Example 135, N-(2-acetamido-1-phenylethyl)-1-(2-((4-fluorophenyl)-amino)-5-methyl-pyridin-4-yl)-1H-pyrrole-3-carboxamide]",–,500 to 2500 nM,–
"O=C(NC(CO)c1cccc(Cl)c1)c1ccn(-c2ccnc(NC3CCNC3)c2)c1 (stereo not drawn) [Example 145, N-(1-(3-chloro-phenyl)-2-hydroxy-ethyl)-1-(2-(pyrrolidin-3-ylamino)pyridin-4-yl)-1H-pyrrole-3-carboxamide]",–,> 2500 nM,–
"Cc1cnc(NC2(CO)CC2)nc1-n1ccc(C(=O)NC(CO)c2ccc(F)c(Cl)c2)c1 (stereo not drawn) [Example 203, N-(1-(3-chloro-4-fluorophenyl)-2-hydroxyethyl)-1-(2-((1-(hydroxymethyl)cyclopropyl)amino)-5-methylpyrimidin-4-yl)-1H-pyrrole-3-carboxamide]",> 2500 nM,–,> 2500 nM
"Cc1cnc(NC2CCN(C)C2)nc1-n1ccc(C(=O)N[C@H](CO)c2cccc(Cl)c2)c1 (stereo partly drawn) [Example 208, N-((S)-1-(3-chlorophenyl)-2-hydroxyethyl)-1-(5-methyl-2-((1-methylpyrrolidin-3-yl)amino)pyrimidin-4-yl)-1H-pyrrole-3-carboxamide]",> 2500 nM,–,500 to 2500 nM
"Cc1cnc(Nc2ccc3[nH]cc(C4=CCNCC4)c3c2)nc1-n1ccc(C(=O)NC(CO)c2cccc(Cl)c2)c1 (stereo not drawn) [Example 209, N-(1-(3-chlorophenyl)-2-hydroxyethyl)-1-(5-methyl-2-((3-(1,2,3,6-tetrahydropyridin-4-yl)-1H-indol-5-yl)amino)pyrimidin-4-yl)-1H-pyrrole-3-carboxamide hydrochloride]",> 2500 nM,–,> 2500 nM
"Cc1cnc(NC2CCOCC2)nc1-n1cnc(C(=O)N[C@@H](CO)c2cccc(Cl)c2)c1 [Example 217, (R)-N-(1-(3-chlorophenyl)-2-hydroxyethyl)-1-(5-methyl-2-((tetrahydro-2H-pyran-4-yl)amino)pyrimidin-4-yl)-1H-imidazole-4-carboxamide]",> 2500 nM,–,> 2500 nM
"CC[C@@H](CO)Nc1ncc(C)c(-n2ccc(C(=O)N[C@@H](CO)c3cccc(Cl)c3)c2)n1 [Example 218, N-((R)-1-(3-chlorophenyl)-2-hydroxyethyl)-1-(2-(((S)-1-hydroxybutan-2-yl)amino)-5-methylpyrimidin-4-yl)-1H-pyrrole-3-carboxamide]",> 2500 nM,–,> 2500 nM
"NCC(NC(=O)c1cn(-c2ccnc(Nc3ccc(F)cc3)c2)cn1)c1ccccc1 (stereo not drawn) [Example 221, N-(2-amino-1-phenylethyl)-1-(2-((4-fluorophenyl)amino)pyridin-4-yl)-1H-imidazole-4-carboxamide]",500 to 2500 nM,–,250 to 500 nM
"Cc1cnc(Nc2ccc(F)cc2)cc1-n1cnc(C(=O)NC(CO)c2ccccc2)c1 (stereo not drawn) [Example 222, 1-(2-((4-fluorophenyl)amino)-5-methylpyridin-4-yl)-N-(2-hydroxy-1-phenylethyl)-1H-imidazole-4-carboxamide]",> 2500 nM,–,> 2500 nM
"Cc1cnc(Nc2ccc(F)c(N3CCOCC3)c2)nc1-n1cnc(C(=O)NC(CO)c2cccc(Cl)c2)c1 (stereo not drawn) [Example 223, N-(1-(3-chlorophenyl)-2-hydroxyethyl)-1-(2-((4-fluoro-3-morpholinophenyl)amino)-5-methylpyrimidin-4-yl)-1H-imidazole-4-carboxamide]",250 to 500 nM,–,250 to 500 nM
"Cc1cnc(NC2CCCCC2)nc1-n1cnc(C(=O)NC(CO)c2cccc(Cl)c2)c1 (stereo not drawn) [Example 226, N-(1-(3-chlorophenyl)-2-hydroxyethyl)-1-(2-(cyclohexylamino)-5-methylpyrimidin-4-yl)-1H-imidazole-4-carboxamide]",> 2500 nM,–,250 to 500 nM
"O=C(N[C@H](CO)c1cccc(Cl)c1)c1ccn(-c2nc(NC3CCOCC3)ncc2F)c1 [Example 229, (S)-N-(1-(3-chlorophenyl)-2-hydroxyethyl)-1-(5-fluoro-2-((tetrahydro-2H-pyran-4-yl)amino)pyrimidin-4-yl)-1H-pyrrole-3-carboxamide]",500 to 2500 nM,–,≤ 100 nM
"Cc1cnc(Nc2ccc(F)cc2)cc1-n1cnc(C(=O)NC(CN)c2ccc(F)cc2)c1 (stereo not drawn) [Example 230, N-(2-amino-1-(4-fluorophenyl)ethyl)-1-(2-((4-fluorophenyl)amino)-5-methylpyridin-4-yl)-1H-imidazole-4-carboxamide]",> 2500 nM,–,500 to 2500 nM
"Cc1cnc(NC2CCOCC2)nc1-n1cnc(C(=O)NC(CO)c2ccsc2)c1 (stereo not drawn) [Example 234, N-(2-hydroxy-1-(thiophen-3-yl)ethyl)-1-(5-methyl-2-((tetrahydro-2H-pyran-4-yl)amino)pyrimidin-4-yl)-1H-imidazole-4-carboxamide]",–,500 to 2500 nM,–
"Cc1cnc(NC2CCOCC2)nc1-n1cnc(C(=O)NCc2sccc2CN)c1 [Example 294, N-((3-(aminomethyl)thiophen-2-yl)methyl)-1-(5-methyl-2-((tetrahydro-2H-pyran-4-yl)amino)pyrimidin-4-yl)-1H-imidazole-4-carboxamide]",–,> 2500 nM,–
"Cc1cnc(NC2CCOCC2)nc1-n1cnc(C(=O)N[C@H](CO)c2cc(F)cc(Cl)c2)c1 [Example 295, (S)-N-(1-(3-chloro-5-fluorophenyl)-2-hydroxyethyl)-1-(5-methyl-2-((tetrahydro-2H-pyran-4-yl)amino)pyrimidin-4-yl)-1H-imidazole-4-carboxamide]",–,≤ 100 nM,–
"Cc1cnc(NC2CCN(C)CC2)nc1-n1cnc(C(=O)N[C@H](CO)c2cccc(Cl)c2)c1 [Example 296, (S)-N-(1-(3-chlorophenyl)-2-hydroxyethyl)-1-(5-methyl-2-((1-methylpiperidin-4-yl)amino)pyrimidin-4-yl)-1H-imidazole-4-carboxamide]",–,500 to 2500 nM,–
